Tests used:
Type in all cases: cell-based
CDK2 = target: T1, CDK2 (Homo sapiens, UniProt P24941); test: CDK2 HIBIT PQ (protein quantification), degradation; details: for CDK2 HIBIT PQ Max (%): Max = Maximum; for DC50: PQ = Protein Quantification
T1 construct: host or cells: HEK293
Summary of the method: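 Maximal degradation and DC50 were obtained from luminescence readings of HEK293 cells expressing HiBiT-tagged CDK2. The cells, grown in DMEM with 10% FBS, were seeded at 1.6×10^5 cells/well in 50 uL in 384-well plates and incubated overnight at 37° C and 5% CO2 before 6 hours of compound treatment. HiBiT reagent (Nano-Glo HiBiT lytic buffer, lytic substrate, LgBiT protein) was then added at 20 μL, and plates were shaken for 20 minutes at room temperature before reading on an EnVision, against a high control of 0.1% DMSO and a low control of medium only.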

CCNE1 = target: T2, CCNE1 (Homo sapiens, UniProt P24864+P24941); test: CCNE1 HIBIT PQ (protein quantification), degradation; details: for CCNE1 HIBIT PQ Max (%): Max = Maximum; for DC50: PQ = Protein Quantification
T2 construct: host or cells: HEK293
Summary of the method: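 For DC50 and maximal degradation, CCNE1 protein was quantified with a HiBiT assay in HEK293 cells carrying HiBiT-tagged CCNE1. Cells in EMEM with 10% FBS went into 384-well plates at 1.6×10⁵ cells/well in 50 uL, stayed overnight at 37° C and 5% CO₂, and then received compound for 6 hours. Readings were referenced to 0.1% DMSO-treated cells as the high control and culture medium only as the low control.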

CDK9 = target: T3, CDK9 (Homo sapiens, UniProt P50750); test: CDK9 HIBIT PQ (protein quantification), degradation; details: for Dmax: Max = Maximum; for DC50: PQ = Protein Quantification
T3 construct: host or cells: HEK293
Summary of the method: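 Maximal degradation, Dmax and DC50 come from HiBiT assay readings of CDK9 protein in compound-treated HEK293 cells that express HiBiT-tagged CDK9. The cells were grown in DMEM with 10% FBS and seeded at 1.6×10^5 cells/well in 50 uL in 384-well plates before overnight incubation at 37° C and 5% CO2. Cells treated with 0.1% DMSO set the high control, and medium only set the low control.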

T3 sequence (P50750 whole entry): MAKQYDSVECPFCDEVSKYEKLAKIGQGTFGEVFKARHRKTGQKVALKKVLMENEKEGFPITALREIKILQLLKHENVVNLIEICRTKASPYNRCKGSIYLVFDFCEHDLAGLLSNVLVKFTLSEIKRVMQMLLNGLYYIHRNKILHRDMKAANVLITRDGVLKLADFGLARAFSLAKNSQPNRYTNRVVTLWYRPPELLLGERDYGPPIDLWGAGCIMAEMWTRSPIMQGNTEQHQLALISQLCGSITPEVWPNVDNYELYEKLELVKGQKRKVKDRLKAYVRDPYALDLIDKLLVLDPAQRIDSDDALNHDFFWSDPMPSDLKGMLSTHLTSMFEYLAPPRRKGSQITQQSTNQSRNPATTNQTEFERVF

SMILES	CDK2 HIBIT PQ Max (%) (CDK2)	CCNE1 HIBIT PQ Max (%) (CCNE1)	Dmax (CDK9)	DC50 (CDK9)	DC50 (CDK2)	DC50 (CCNE1)
CC(C)Oc1c(-c2cn[nH]c2)ncn2nc(NC3CCN(S(=O)(=O)c4cccc(CN5CC6(C5)CN(c5ccc7c(c5)CN(C5CCC(=O)NC5=O)C7=O)C6)c4)CC3)nc12 (racemic) [Compound 2]	46%	41%	92%	25.7 nM	–	–
CC(C)Oc1c(-c2cn[nH]c2)ncn2nc(NC3CCN(S(=O)(=O)c4cccc(CN5CCN(c6cc7c(cc6F)C(=O)N(C6CCC(=O)NC6=O)C7)CC5)c4)CC3)nc12 (racemic) [Compound 3]	66%	64%	102%	19.4 nM	3.12 nM	8.88 nM
CC(C)Oc1c(-c2cn[nH]c2)ncn2nc(NC3CCN(S(=O)(=O)c4cccc(CN5CC(c6ccc7c(c6)CN(C6CCC(=O)NC6=O)C7=O)C5)c4)CC3)nc12 (racemic) [Compound 4]	63%	65%	4%	–	4.14 nM	7.1 nM
CC(C)Oc1c(-c2cn[nH]c2)ncn2nc(NC3CCN(S(=O)(=O)N4CCC(CN5CCC(c6cccc7c6n(C)c(=O)n7C6CCC(=O)NC6=O)CC5)CC4)CC3)nc12 (racemic) [Compound 6, rac-(R)-3-(4-(1-((1-((4-((8-isopropoxy-7-(1H-pyrazol-4-yl)-[1,2,4]triazolo[1,5-c]pyrimidin-2-yl)amino)piperidin-1-yl)sulfonyl)piperidin-4-yl)methyl)piperidin-4-yl)-3-methyl-2-oxo-2,3-dihydro-1H-benzo[d]imidazol-1-yl)piperidine-2,6-dione]	80%	73%	103%	1.48 nM	0.59 nM	0.88 nM
CC(C)Oc1c(-c2cn[nH]c2)ncn2nc(Nc3ccc(S(=O)(=O)c4cccc(N5CCN(CC6CCN(c7ccc8c(c7)CN(C7CCC(=O)NC7=O)C8=O)CC6)CC5)c4)cc3F)nc12 (racemic) [Compound 9]	89%	72%	97%	11.7 nM	1.44 nM	6.38 nM
CC(C)Oc1c(-c2cn[nH]c2)ncn2nc(Nc3ccc(S(=O)(=O)c4cccc(CN5CC6(C5)CN(c5ccc7c(c5)CN(C5CCC(=O)NC5=O)C7=O)C6)c4)cc3F)nc12 (racemic) [Compound 10]	86%	60%	54%	25.5 nM	3.76 nM	10.6 nM
CC(C)Oc1c(-c2cn[nH]c2)ncn2nc(Nc3ccc(S(=O)(=O)c4cccc(CN5CCN(c6cc7c(cc6F)C(=O)N(C6CCC(=O)NC6=O)C7)CC5)c4)cc3F)nc12 (racemic) [Compound 11]	90%	65%	50%	–	2.25 nM	14.4 nM
CC(C)Oc1c(-c2cn[nH]c2)ncn2nc(Nc3ccc(S(=O)(=O)c4cccc(CN5CC(c6ccc7c(c6)CN(C6CCC(=O)NC6=O)C7=O)C5)c4)cc3F)nc12 (racemic) [Compound 12]	89%	62%	8%	–	2.2 nM	4.06 nM
CC(C)Oc1c(-c2cn[nH]c2)ncn2nc(Nc3ccc(S(=O)(=O)c4cccc(CN5CCC(c6cccc7c6n(C)c(=O)n7C6CCC(=O)NC6=O)CC5)c4)cc3F)nc12 (racemic) [Compound 13]	85%	44%	53%	6.6 nM	0.42 nM	–
CC(C)Oc1c(-c2cn[nH]c2)ncn2nc(Nc3ccc(S(=O)(=O)N4CCC(CN5CCC(c6cccc7c6n(C)c(=O)n7C6CCC(=O)NC6=O)CC5)CC4)cc3F)nc12 (racemic) [Compound 14, rac-(R)-3-(4-(1-((1-((3-fluoro-4-((8-isopropoxy-7-(1H-pyrazol-4-yl)-[1,2,4]triazolo[1,5-c]pyrimidin-2-yl)amino)phenyl)sulfonyl)piperidin-4-yl)methyl)piperidin-4-yl)-3-methyl-2-oxo-2,3-dihydro-1H-benzo[d]imidazol-1-yl)piperidine-2,6-dione]	70%	33%	74%	1.12 nM	0.24 nM	–
CC(C)Oc1c(-c2cn[nH]c2)ncn2nc(Nc3ccc(S(=O)(=O)N(C)CCCN4CCC(c5ccc6c(c5)n(C)c(=O)n6[C@H]5CCC(=O)NC5=O)CC4)cc3F)nc12 (racemic) [Compound 16]	91%	79%	94%	0.52 nM	< 0.152 nM	0.21 nM
CC(C)Oc1c(-c2cn[nH]c2)ncn2nc(Nc3ccc(S(=O)(=O)N(C)CCCN4CCN(c5cccc6c5n(C)c(=O)n6C5CCC(=O)NC5=O)CC4)cc3F)nc12 (racemic) [Compound 17]	91%	83%	77%	2.7 nM	0.26 nM	0.94 nM
CC(C)Oc1c(-c2cn[nH]c2)ncn2nc(Nc3ccc(S(=O)(=O)N(C)CCCN4CCC(c5cccc6c5n(C)c(=O)n6C5CCC(=O)NC5=O)CC4)cc3F)nc12 (racemic) [Compound 18]	90%	82%	87%	2.19 nM	0.6 nM	0.64 nM
CC(C)Oc1c(-c2cn[nH]c2)ncn2nc(NC3CCN(S(=O)(=O)N(C)CCCN4CCC(c5cccc6c5n(C)c(=O)n6C5CCC(=O)NC5=O)CC4)CC3)nc12 (racemic) [Compound 19]	90%	85%	77%	3.8 nM	0.87 nM	0.77 nM
CC(C)Oc1c(-c2cn[nH]c2)ncn2nc(Nc3ccc(S(=O)(=O)c4cccc(N5CCC(CN6CCN(c7ccc8c(c7)CN(C7CCC(=O)NC7=O)C8=O)CC6)CC5)c4)cc3F)nc12 (racemic) [Compound 22]	93%	71%	97%	16.1 nM	1.7 nM	10.9 nM
CC(C)Oc1c(-c2cn[nH]c2)ncn2nc(Nc3ccc(S(=O)(=O)c4cccc(OC5CN(C6CCN(c7ccc8c(c7)CN(C7CCC(=O)NC7=O)C8=O)CC6)C5)c4)cc3F)nc12 (racemic) [Compound 23]	87%	42%	61%	10.6 nM	1.1 nM	–
CC(C)Oc1c(-c2cn[nH]c2)ncn2nc(Nc3ccc(S(=O)(=O)c4cccc(CN5CCC(c6ccc7c(c6)n(C)c(=O)n7C6CCC(=O)NC6=O)CC5)c4)cc3F)nc12 (racemic) [Compound 25]	81%	21%	41%	–	0.2 nM	–
CC(C)Oc1c(-c2cn[nH]c2)ncn2nc(Nc3ccc(S(=O)(=O)N(C)CCCN4CCC(c5cccc6c5n(C)c(=O)n6C5CCC(=O)N(C)C5=O)CC4)cc3F)nc12 (racemic) [Compound 28]	6%	0%	2%	–	–	–
CC(C)Oc1c(-c2cn[nH]c2)ncn2nc(Nc3ccc(S(=O)(=O)c4cccc(CN5CCN(c6ccc7c(N8CCC(=O)NC8=O)nn(C)c7c6)CC5C(C)C)c4)cc3F)nc12 (single isomer, unassigned) [Compound 106]	94%	59%	–	–	8.3 nM	39.4 nM
CC(C)Oc1c(-c2cn[nH]c2)ncn2nc(Nc3ccc(S(=O)(=O)c4cccc(CN5CCN(c6ccc7c(N8CCC(=O)NC8=O)nn(C)c7c6)CC5C(C)C)c4)cc3F)nc12 (single isomer, unassigned) [Compound 107]	93%	71%	–	–	12 nM	63.1 nM

Reference: patent publication US20260062426A1, “CYCLIN DEPENDENT KINASE DEGRADERS AND METHODS OF USE THEREOF” (Differentiated Therapeutics Inc, priority 2023, published 2026)
